In one series the target is CYP2C9 (Homo sapiens, UniProt P11712). Briefly: multiple CYP assay in human liver microsomes. The note with it: 10 μM. In general terms: Microsomes from liver hold many membrane-bound enzymes, among them those of drug oxidation.
The next series can be described thus: metabolic stability. To be noted: human liver microsomes, after 60 min of incubation.
For another series, the target named is hERG (Homo sapiens, UniProt Q12809). Briefly: hERG inhibition. It counts as cell-based. The note with it: read-out: IC50 for hERG inhibition; patch-clamp.
Series [1] relates to A498 cells. Briefly: Western blot / immunofluorescence of marker proteins. It counts as cell-based, human.
Series [2] concerns 786-O cells. Briefly: cell cycle analysis by flow cytometry. Format: cell-based, human. The note with it: increasing concentrations, 24 hours.
In series [3] the test system is A498 cells. Briefly: intracellular glucose measurement. To be noted: 24 hours. It counts as cell-based, human.
The test system of series [4] is 786-O cells. Briefly: intracellular glucose measurement. It counts as cell-based, human. The note with it: 24 hours.
For a further series, the target named is CYP2D6 (Homo sapiens, UniProt P10635). Briefly: multiple CYP assay in human liver microsomes. The note with it: 10 μM.
In series [5] the test system is pancreatic and ovarian cancer cells. To be noted: cited from earlier work.
A further series deals with T1, CYP1A2 (Homo sapiens, UniProt P05177).
T1 sequence (P05177 1-516): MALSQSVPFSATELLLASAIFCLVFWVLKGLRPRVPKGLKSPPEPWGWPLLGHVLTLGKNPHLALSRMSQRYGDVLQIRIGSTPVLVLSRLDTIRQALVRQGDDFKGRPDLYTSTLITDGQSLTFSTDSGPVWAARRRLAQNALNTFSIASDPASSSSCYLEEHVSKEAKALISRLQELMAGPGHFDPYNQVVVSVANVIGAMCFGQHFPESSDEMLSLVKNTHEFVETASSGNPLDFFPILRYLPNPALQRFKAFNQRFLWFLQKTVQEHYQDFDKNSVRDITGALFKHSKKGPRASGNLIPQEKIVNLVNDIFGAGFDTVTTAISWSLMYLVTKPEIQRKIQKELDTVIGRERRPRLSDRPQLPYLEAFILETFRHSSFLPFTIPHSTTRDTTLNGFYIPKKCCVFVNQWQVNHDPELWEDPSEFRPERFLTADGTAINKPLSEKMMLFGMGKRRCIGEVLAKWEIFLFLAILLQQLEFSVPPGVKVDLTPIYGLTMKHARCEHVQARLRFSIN
Briefly: multiple CYP assay in human liver microsomes. To be noted: 10 μM.

Series [6] concerns 786-O cells. Briefly: Western blot / immunofluorescence of marker proteins. It counts as cell-based, human. On the technique in general: A western blot detects proteins with antibodies after separation by electrophoresis.
A further series concerns the target T2, CYP2B6 (Homo sapiens, UniProt P20813).
T2 sequence (P20813 1-491): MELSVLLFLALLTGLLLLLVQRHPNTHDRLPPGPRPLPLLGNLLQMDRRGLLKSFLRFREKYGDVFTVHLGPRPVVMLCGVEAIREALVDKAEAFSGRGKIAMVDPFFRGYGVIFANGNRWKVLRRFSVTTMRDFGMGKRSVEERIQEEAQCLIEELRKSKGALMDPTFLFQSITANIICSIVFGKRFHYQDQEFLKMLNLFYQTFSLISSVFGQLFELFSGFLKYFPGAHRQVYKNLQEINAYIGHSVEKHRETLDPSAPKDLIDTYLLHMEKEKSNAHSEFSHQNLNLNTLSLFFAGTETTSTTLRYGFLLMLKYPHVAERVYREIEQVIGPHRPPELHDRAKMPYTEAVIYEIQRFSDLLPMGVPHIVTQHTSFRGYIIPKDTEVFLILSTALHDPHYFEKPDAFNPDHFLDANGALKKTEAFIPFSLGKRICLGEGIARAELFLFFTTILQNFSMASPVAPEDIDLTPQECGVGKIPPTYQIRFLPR
Briefly: multiple CYP assay in human liver microsomes. The note with it: 10 μM.

The test system of a further series is SKOV3 ovarian cancer. The note with it: SKOV3 xenograft; cited from earlier work.
A further series has as its target CYP2C19 (Homo sapiens, UniProt P33261). Briefly: multiple CYP assay in human liver microsomes. The note with it: 10 μM.
The subject of series [7] is A498 cells. Briefly: Annexin-FITC/PI apoptosis assay. Format: cell-based, human. The note with it: 48 hours.
For series [8], the system named is A498 cells. Briefly: cell cycle analysis by flow cytometry. Format: cell-based, human. The note with it: increasing concentrations, 24 hours. (Flow cytometry measures light scatter and fluorescence of single cells or particles in a stream.)
The test system of series [9] is A498 cells. Briefly: 3H-thymidine incorporation proliferation assay. It counts as cell-based, human.
For the next series, the system named is A498 tumor model. Briefly: subcutaneous xenograft anti-tumor activity. It counts as in vivo, mouse. To be noted: 4 weeks.
Another series concerns 786-O tumor model. Briefly: subcutaneous xenograft anti-tumor activity. It counts as in vivo, mouse. The note with it: 4 weeks.
Series [10] in a line: pharmacokinetic analysis of plasma levels. To be noted: Sprague-Dawley rats.
For the next series, the target named is CYP3A4 (Homo sapiens, UniProt P08684). Briefly: multiple CYP assay in human liver microsomes. To be noted: 10 μM.
The test system of series [11] is 786-O cells. Briefly: 3H-thymidine incorporation proliferation assay. It counts as cell-based, human.
For a further series, the system named is panel of 320 kinases. Briefly: kinase selectivity profile, single dose. It counts as biochemical.
The subject of series [12] is 786-O cells. Briefly: Annexin-FITC/PI apoptosis assay. Format: cell-based, human. The note with it: 48 hours.
The mark [13] stands for this setting: 20 mg/kg i.p. three times a week, p<0.05.
Setting [14] is: tumor tissue sections, 20 mg/kg i.p.

Sequence of CYP2C9 (P11712 whole entry): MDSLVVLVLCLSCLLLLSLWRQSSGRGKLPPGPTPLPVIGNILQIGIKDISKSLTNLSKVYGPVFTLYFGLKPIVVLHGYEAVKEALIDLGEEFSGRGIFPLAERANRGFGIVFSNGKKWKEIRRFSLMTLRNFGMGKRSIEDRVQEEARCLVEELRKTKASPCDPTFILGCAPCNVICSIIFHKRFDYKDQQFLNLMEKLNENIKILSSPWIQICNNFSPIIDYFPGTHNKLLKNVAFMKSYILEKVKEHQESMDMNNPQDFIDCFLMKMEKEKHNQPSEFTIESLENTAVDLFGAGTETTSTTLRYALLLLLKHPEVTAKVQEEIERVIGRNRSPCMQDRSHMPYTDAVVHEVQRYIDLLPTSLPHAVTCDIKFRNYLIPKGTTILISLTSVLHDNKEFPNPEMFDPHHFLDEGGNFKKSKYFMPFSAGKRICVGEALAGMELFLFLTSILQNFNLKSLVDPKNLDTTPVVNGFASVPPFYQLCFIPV
Sequence of CYP2C19 (P33261 whole entry): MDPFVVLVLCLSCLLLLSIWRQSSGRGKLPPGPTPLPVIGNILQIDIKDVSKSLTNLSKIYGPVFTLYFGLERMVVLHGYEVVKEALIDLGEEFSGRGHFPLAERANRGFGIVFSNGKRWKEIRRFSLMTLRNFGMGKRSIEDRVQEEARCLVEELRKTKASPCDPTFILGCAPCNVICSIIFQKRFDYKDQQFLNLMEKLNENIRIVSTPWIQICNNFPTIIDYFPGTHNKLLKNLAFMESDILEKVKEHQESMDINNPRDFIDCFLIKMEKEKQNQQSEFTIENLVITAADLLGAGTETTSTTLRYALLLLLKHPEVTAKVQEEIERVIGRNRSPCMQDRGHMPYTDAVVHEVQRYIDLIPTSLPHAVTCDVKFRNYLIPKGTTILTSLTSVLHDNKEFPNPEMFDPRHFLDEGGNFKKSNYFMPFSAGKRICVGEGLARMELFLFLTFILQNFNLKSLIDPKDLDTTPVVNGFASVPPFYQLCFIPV
Sequence of CYP3A4 (P08684 whole entry): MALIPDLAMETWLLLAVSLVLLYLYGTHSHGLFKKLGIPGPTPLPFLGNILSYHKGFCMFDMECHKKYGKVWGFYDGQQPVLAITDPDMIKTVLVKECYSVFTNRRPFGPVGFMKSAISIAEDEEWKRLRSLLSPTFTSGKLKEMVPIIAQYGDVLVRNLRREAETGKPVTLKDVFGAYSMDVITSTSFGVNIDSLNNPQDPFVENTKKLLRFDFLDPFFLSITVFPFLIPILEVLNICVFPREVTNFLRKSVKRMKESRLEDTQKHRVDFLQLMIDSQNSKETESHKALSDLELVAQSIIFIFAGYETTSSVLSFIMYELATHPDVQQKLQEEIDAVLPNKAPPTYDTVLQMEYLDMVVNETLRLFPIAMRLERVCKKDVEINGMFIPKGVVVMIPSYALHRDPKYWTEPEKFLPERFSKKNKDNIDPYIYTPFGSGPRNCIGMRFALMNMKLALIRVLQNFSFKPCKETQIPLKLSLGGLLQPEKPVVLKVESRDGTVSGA
Sequence of hERG (Q12809 whole entry): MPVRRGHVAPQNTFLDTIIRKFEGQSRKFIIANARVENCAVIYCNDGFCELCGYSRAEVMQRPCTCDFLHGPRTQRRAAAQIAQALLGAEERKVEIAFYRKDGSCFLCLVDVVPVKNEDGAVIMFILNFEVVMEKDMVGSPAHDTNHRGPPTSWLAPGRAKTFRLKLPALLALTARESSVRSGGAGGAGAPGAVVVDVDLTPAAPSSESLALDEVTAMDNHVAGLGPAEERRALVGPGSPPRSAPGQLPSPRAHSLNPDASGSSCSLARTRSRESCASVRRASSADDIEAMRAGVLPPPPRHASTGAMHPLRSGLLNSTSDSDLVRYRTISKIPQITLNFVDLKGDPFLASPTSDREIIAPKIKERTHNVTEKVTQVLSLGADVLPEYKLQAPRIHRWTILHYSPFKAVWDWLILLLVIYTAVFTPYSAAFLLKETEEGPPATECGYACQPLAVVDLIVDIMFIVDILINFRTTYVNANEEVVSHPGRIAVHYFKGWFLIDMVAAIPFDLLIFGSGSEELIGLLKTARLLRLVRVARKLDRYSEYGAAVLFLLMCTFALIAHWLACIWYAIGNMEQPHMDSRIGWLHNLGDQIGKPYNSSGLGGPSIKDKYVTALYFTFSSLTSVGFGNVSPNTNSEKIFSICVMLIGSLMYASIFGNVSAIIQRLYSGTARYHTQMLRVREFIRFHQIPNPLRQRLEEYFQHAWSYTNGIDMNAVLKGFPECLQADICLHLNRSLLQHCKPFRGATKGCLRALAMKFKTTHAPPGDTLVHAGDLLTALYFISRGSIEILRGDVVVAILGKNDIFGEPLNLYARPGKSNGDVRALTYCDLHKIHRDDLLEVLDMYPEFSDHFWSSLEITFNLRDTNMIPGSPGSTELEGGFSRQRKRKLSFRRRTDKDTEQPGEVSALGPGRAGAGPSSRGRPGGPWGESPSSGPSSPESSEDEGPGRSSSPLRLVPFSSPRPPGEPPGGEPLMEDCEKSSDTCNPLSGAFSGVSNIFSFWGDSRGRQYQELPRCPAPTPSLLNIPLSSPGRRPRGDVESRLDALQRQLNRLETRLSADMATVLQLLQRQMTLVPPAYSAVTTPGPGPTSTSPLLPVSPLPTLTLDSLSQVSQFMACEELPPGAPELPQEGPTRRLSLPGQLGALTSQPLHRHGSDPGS
Sequence of CYP2D6 (P10635 whole entry): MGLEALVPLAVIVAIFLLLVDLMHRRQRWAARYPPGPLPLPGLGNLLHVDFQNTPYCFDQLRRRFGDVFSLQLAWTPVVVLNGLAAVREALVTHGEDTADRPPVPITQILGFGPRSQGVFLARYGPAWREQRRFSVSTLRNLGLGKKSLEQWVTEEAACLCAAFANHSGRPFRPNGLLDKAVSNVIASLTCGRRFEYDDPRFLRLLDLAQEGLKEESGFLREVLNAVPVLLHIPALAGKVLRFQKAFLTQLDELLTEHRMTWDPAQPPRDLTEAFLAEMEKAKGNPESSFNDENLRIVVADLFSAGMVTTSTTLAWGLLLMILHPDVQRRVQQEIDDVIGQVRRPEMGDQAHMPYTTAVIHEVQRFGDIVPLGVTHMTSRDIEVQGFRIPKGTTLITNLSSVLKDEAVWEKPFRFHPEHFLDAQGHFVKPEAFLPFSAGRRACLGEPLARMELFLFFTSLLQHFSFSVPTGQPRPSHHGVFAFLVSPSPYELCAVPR

For orientation: IC50 means the concentration needed to halve the response being measured. As to `Cn1cc(C2=C(c3coc4ccc(F)cc34)C(=O)NC2=O)c2cc3c(cc21)OCO3` [9-ING-41], the CYP activity on CYP2C9 is listed as ≥ 50 % of the control; on CYP2D6, ≥ 50 % of the control; at CYP1A2, ≥ 50 % of the control; at CYP2B6, ≥ 50 % of the control; at CYP2C19, ≥ 50 % of the control; at CYP3A4, 32 % of the control. The parent compound remained in “metabolic stability” came to 78.9%. In addition, the IC50 on hERG was 21 µM; in the series with A498 cells [9] (read-out: cell growth inhibition IC50, A498), under 1 µM; with 786-O cells [11] (read-out: cell growth inhibition IC50) it was under 1 µM. Moreover, the “phosphorylation of AMPK-α and AMPK-β” value was “increase in phosphorylation” in the series on A498 cells [1] (24-48 hours, A498, Western blot) and “increase in phosphorylation” with 786-O cells [6] (24-48 hours, Western blot). The “cyclin D1 protein expression” value in the series with A498 cells [1] (24 hours, A498, Western blot) is on record as “down-regulated”; with 786-O cells [6] (24 hours, Western blot), “down-regulated”. Also, the Id-1 expression entry in the series on A498 cells [1] (48 hours, A498, Western blot) is “decreased”; with 786-O cells [6] (48 hours, Western blot), “decreased”. The Ksp-cadherin expression entry in the series on A498 cells [1] (48 hours, A498, Western blot) was “dose-dependent increase”; with 786-O cells [6] (48 hours, Western blot), “dose-dependent increase”. Also, the “LC3B levels (autophagy)” value was “increased levels” in the series on A498 cells [1] (A498, Western blot and immunofluorescence); “increased levels” in the series on 786-O cells [6] (Western blot and immunofluorescence). The “fraction of cells in the S phase” value with 786-O cells [2] and in the series with A498 cells [8] was “decreased significantly” throughout. In addition, the intracellular glucose result with A498 cells [3] and in the series on 786-O cells [4] was “dose-dependent increase” each time. In series [5], the antiproliferative activity result was “potent antiproliferative agent”. For the same compound, the “tumor progression in vivo” value in the series with SKOV3 ovarian cancer is reported as “attenuate tumor progression”. In addition, the induction of apoptosis entry with A498 cells [7] and in the series with 786-O cells [12] (786-O) was “No significant induction of apoptosis” in each case. Moreover, the inhibition in proliferation with A498 cells [9] (500 nM, 72 hours, A498) is reported as ~ 40%; in the series on 786-O cells [11] (500 nM, 72 hours) it was ~ 40%. The inhibition of proliferation result in the series on A498 cells [9] (1000 nM, 72 hours, A498) was “almost complete inhibition”; in the series on 786-O cells [11] (1000 nM, 72 hours) it was “almost complete inhibition”. In addition, the “tumor growth vs control group” value with A498 tumor model (setting [13]) and in the series on 786-O tumor model (setting [13]) was “significant reduction of tumor growth” throughout. The “abundance of Ki67-positive nuclei vs control group” value in the series with A498 tumor model (setting [14]) and with 786-O tumor model (setting [14]) was “significantly lower” throughout. For the same compound, the elimination half-life in [10] amounted to 4.85 h. The compound further registered a volumes of distribution in series [10] of at least 10 L/kg. In the series on panel of 320 kinases (10 μM single dose, duplicates, panel of 320 kinases), the “number of kinases with less than 50% remaining activity” value worked out at 35. The “discrimination between GSK-3α and GSK-3β” value in the series with panel of 320 kinases (SI Table S1, 10 μM) was “inhibits them equally”. Further, the “percentage of early apoptotic cells” value in the series with 786-O cells [12] (1000 nM, 786-O (DMSO 5.54%)) is 11.6%.
On to “GSK-3β siRNA: Qiagen siRNA against GSK-3β, target sequence 5'-CCCAAATGTCAAACTACCAAA-3' (sense CAAAUGUCAAACUACCAAATT; antisense UUUGGUAGUUUGACAUUUGGG; chemistry not given here) [reference compound]”, for which the inhibition of proliferation result in the series with A498 cells [9] (siRNA 100 nM, 72 hours, A498, p<0.01) is listed as “slight yet significant inhibition”; with 786-O cells [11] (siRNA 100 nM, 72 hours, p<0.01), “slight yet significant inhibition”.
